Key:
[1] = Stresso-protective activity, motion stress in slowly rotating drum for 48 hours; type: in vivo, rats; conditions: 48 h motion stress, 10 mg/kg i.p. four times (invention, ester)
Description: In evaluation of the stresso-protective activity of the compound according to the present invention as a model use was made of a procedure of depriving rats of sleep, meals and water in a slowly rotating drum (at the speed of 0.2 km/h).
The experiments were carried out on 42 nondescript male rats. In parallel experiments the antistress activity of butanedioic acid mono[(2-dimethylamino)ethyl ester] was studied; as the reference prepartion use was made of the prior art tranquilizer--diazepam which was used in the experiments for this very indication.
4 groups of animals were tested in parallel. Groups I and II were placed for 48 hours into a slowly rotating drum, groups III and IV were under normal conditions and were deprived only of meals and water. The compound according to the present invention and butanedioic acid mono[(2-dimethylamino)ethyl ester] were administered intraperitoneally in the dose of 10 mg/kg four times (2 times a day) in the volume of 2.5 ml/kg under the conditions of motion stress (Group I of the animals) and under normal conditions (Group III of animals). The control animals--Group II (active control) and Group IV (passive control) were given a physiological solution. The efficiency of the compound according to the present invention, of butanedioic acid mono[(2-dimethylamino)ethyl ester] and of diazepam was estimated on the basis of a set of characteristics showing the functional activity of the central nervous system, physical fitness and development of basic symptoms of the stress-syndrome.
The residence of control rats in a slowly-rotating drum over 48 hours results in a noticeable deterioration of all the studied characteristics, especially those of higher nervous activity (learning) and development of stress-syndrome. The state of control animals was characterized by lowering of the overall behavioural activity as determined by the "open-field" test (37±15%) with reference to the passive control level, by a reduction in the speed of development of a conventional avoiding response in an aqueous labyrinth (58±15%), by an increase in the number of mistakes during the teaching time (175±25%), lowering of the ultimate physical endurance as determined by the swimming-with-load test (the load is equal to 10% by mass of the body (70±17%), adrenal hypertrophy (146±16%), thymus atrophy (49±9%) and formation of ulcers on the stomach mucous membrane (5.25±1.0%).

[2] = Survival of mice on acute cooling; type: in vivo; conditions: i.p. 1 hour before, 80 mg/kg (invention), 64 mg/kg (ester), 17 mg/kg (sodium succinate)
Description: The activity of the compound according to the present invention was studied in experiments on animals. The effectivemess of the compound according to the present invention was studied for resistance against an acute cold effect in comparison with conventional preparations such as butanedioic acid mono[(2-dimethylamino)ethyl ester] and sodium succinate.
The experiments were carried out on male mice (tetrahybdrids) with a body mass of 18-20 g which were placed into a cold chamber at a temperature of -15t to -17° C. in separate plastic cages slightly limiting their activity. […] The preparations were administered intraperiotoneally 1 hour before the cold effect the control animals were administered with a physiological solution.

Structure (SMILES)	Weight coefficient of thymus ([1]; control 0.95 ± 0.18)	Weight coefficient of adrenal glands ([1]; control 1.246 ± 0.028)	Number of attempts till reaching the learning criterion (water labyrinth) ([1]; control 4.75 ± 0.5)	Number of ulcers on the stomach mucous membrane ([1]; control 5.25 ± 1.0)	Duration of swimming ([1]; control 244 ± 26) [s]	Survival, %, 1 hour ([2]; 1 hour of cold at -15 to -17° C.) [%]	Survival, %, 2 hours ([2]; 2 hours of cold at -15 to -17° C.) [%]	Survival, %, 3 hours ([2]; 3 hours of cold at -15 to -17° C.) [%]	Survival, %, 4 hours ([2]; 4 hours of cold at -15 to -17° C.) [%]	Survival, %, 5 hours ([2]; 5 hours of cold at -15 to -17° C.) [%]	Survival, %, 6 hours ([2]; 6 hours of cold at -15 to -17° C.) [%]
CN1C(=O)CN=C(c2ccccc2)c2cc(Cl)ccc21 [Diazepam, diazepam]	2.26 g/kg of the initial body mass	1.010 g/kg of the initial body mass	7.25	1.0	210						
O=C(O)CCC(=O)O [Sodium succinate, sodium succinate]						100	80	70	40	10	0
